One series concerns HaCaT. As to the kind of experiment: Inhibition of colony formation of human HaCaT cells. The series is classed as functional, cell-based.
The nature of series [1]: Antiproliferative activity against NHEK cells assessed as cell proliferation incubated for 24 hrs by [3H]thymidine incorporation assay relative to untreated control. In general terms: Dividing cells build labelled thymidine or BrdU into new DNA.
Series [2] in a line: Antiproliferative activity against NHEK cells incubated for 24 hrs by [3H]thymidine incorporation assay. Type of series: functional, cell-based. As to conditions: Homo sapiens.
Series [3] addresses T1, CYP11A1 (cholesterol side-chain cleavage enzyme, mitochondrial) (Bos taurus, UniProt P00189).
T1 sequence (P00189 whole entry): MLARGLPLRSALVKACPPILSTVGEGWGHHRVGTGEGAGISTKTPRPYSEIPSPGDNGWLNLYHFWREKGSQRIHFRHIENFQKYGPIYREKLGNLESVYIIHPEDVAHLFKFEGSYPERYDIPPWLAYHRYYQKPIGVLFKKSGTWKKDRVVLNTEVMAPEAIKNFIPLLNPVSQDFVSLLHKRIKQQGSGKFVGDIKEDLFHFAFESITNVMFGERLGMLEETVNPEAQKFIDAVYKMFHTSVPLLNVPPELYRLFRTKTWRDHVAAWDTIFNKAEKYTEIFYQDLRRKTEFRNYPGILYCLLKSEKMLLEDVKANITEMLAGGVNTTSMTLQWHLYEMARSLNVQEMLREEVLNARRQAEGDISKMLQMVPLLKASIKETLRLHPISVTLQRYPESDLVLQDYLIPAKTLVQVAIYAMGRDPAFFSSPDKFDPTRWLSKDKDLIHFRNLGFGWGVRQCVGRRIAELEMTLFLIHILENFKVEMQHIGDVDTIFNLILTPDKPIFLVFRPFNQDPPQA
As to the kind of experiment: Drug metabolism assessed as bovine CYP11A1-mediated compound metabolism after 2 mins incubation using compound loaded phospholipid vesicle by reverse phase HPLC. Type of series: ADME. The conditions noted are these: cattle, bovine CYP11A1 with compound-loaded phospholipid vesicles; read-out: Drug metabolism.

Another series deals with HEK293. As to the kind of experiment: Stimulation of cell proliferation of NHEK cells at 0.1 nM incubated for 24 hrs by [3H]thymidine incorporation assay. The series is classed as functional, cell-based. The conditions noted are these: Homo sapiens.

Activity calls are given as the source filed them. The rule behind the calls is not given here.

Usually EC50 stands for the midpoint of the concentration-response curve. A lower EC50 goes with greater potency.

In the case of `C=C1/C(=C\C=C2/CCC[C@]3(C)[C@@H]([C@H](C)CCCC(C)(C)O)CC[C@@H]23)C[C@@H](O)C[C@@H]1O`, the inhibition entry in the series on HaCaT was “Active”.
Take `C=C1CC[C@H](O)C/C1=C/C=C1\CCC[C@@]2(C)[C@H]1CC[C@@H]2[C@@](C)(O)CCCC(C)C`: the “level, % of control” value in series [1] is listed as less than 50%. Also, the midpoint of the response in series [2], the EC50, lay at 0.728 nM. Moreover, the inhibition entry in the series with HaCaT is “Active”. For the same compound, in series [3], the metabolised at 2 min was determined as 13%.
Turning to `C=C1CC[C@H](O)C/C1=C/C=C1\CCC[C@]2(C)[C@@H]([C@H](C)CCCC(C)(C)O)CC[C@@H]12`, the inhibition entry in the series with HaCaT is “inactive”.
For the compound `C=C1CC[C@H](O)C/C1=C/C=C1\CCC[C@@]2(C)[C@H]1CC[C@@H]2[C@](C)(O)CCCC(C)C`, in series [1], the “level, % of control” value is less than 50%. Further, the result in the series with HEK293 was Active. The compound further came in with an EC50 in series [2] of 4.09 nM. Also, the metabolised at 2 min in series [3] is 58%.

(Values after ChEMBL document CHEMBL2034926, “Design, synthesis, and biological action of 20R-hydroxyvitamin D3” (J Med Chem, 2012).)
